This is an account of results in publication PMC3419191, “Identification of Novel Piperazinylquinoxaline Derivatives as Potent Phosphoinositide 3-Kinase (PI3K) Inhibitors” (PLoS ONE, 2012).

For series [1], the system named is PC3 cells. Briefly: Apoptosis assay in PC3 cells by flow cytometry (PI). The format is cell-based, human. The settings on record: 24 h, control 1.71%. How it is done: Piperazinylquinoxaline derivative 41 was further tested for its ability to induce apoptosis in PC3 cells. […] (Fig. 5). With an apoptotic percent of 1.71% of the control, the percent of apoptotic PC3 cells induced by compound 41 and GDC0941 in 5 µM after treatment of 24 h were 4.48% and 3.12%, respectively.
Figure 5 Apoptosis induction of compound 41 and GDC0941 in PC3 cells. After treatment with 41 and GDC0941 (5 or 10 µM) for 24 h, PC3 cells were harvested and detected of apoptosis by flow cytometry using PI apoptosis detection kit. Vertical axes stand for the counts of relative number of PC3 cells; horizontal axes stand for the relative fluorescence light intensity measured as pulse-area (FL2-A). TEXT PRINTED IN THE PICTURE: Compound 41: Apo:4.48% (5μM); Apo:32.83% (10μM) | GDC0941: Apo:3.12% (5μM); Apo:5.65% (10μM)
(§1) For flow cytometry analysis, PC3 cells were treated with DMSO, compound 41 and GDC0941 for 24 h. Cells were washed twice with PBS and fixed in 75% ethanol at −20°C. The cell pellet was resuspended in 100 µL of PBS containing […] RNase (Amerson, Solon, OH, USA), then incubated at 37°C for 0.5 h. After incubation, the cells were stained with 20 mL/L propidium iodide (PI, Sigma, St. Louis, MO, USA) at 4°C for 15 min. The fluorescence of cell was measured with FACSCalibur flow cytometer (Becton-Dickinson, Lincoln Park, NJ, USA).
(In general: Flow cytometry measures light scatter and fluorescence of single cells or particles in a stream.)

In series [2] the test system is PC3 cells. Briefly: Cell cycle arrest in PC3 cells by flow cytometry. Format: cell-based, human. Conditions: 24 h; for cell cycle arrest: 2 and 4 µM. How it is done:
Moreover, flow cytometric analysis was performed to determine whether target compounds could induce cell cycle arrest in PC3 cells. GDC0941 was used as the positive control. PC3 cells were treated with compound 41 and GDC0941 in two different concentrations (2 and 4 µM) for 24 h, the results are presented as Figure 6.
Figure 6 Cell cycle arrest test of compound 41 and GDC0941 in PC3 cells. Vertical axes stand for the counts of relative number of PC3 cells; horizontal axes stand for the relative fluorescence light intensity measured as pulse-area (FL2-A). TEXT PRINTED IN THE PICTURE: Compound 41: G1: 53.77 % (2μM); G2: 16.76 % (2μM); S: 29.48 % (2μM); G1: 54.38 % (4μM); G2: 15.87 % (4μM); S: 29.75 % (4μM) | GDC0941: G1: 63.66 % (2μM); G2: 21.86 % (2μM); S: 14.48 % (2μM); G1: 71.43 % (4μM); G2: 19.92 % (4μM); S: 8.65 % (4μM)
as §1

Series [3] addresses T1, recombinant human PI3Kα (Homo sapiens, UniProt P42336).
T1 construct: purchased Echelon Biosciences (Salt Lake City, UT, USA) E-2000
Kind of series: Competitive fluorescence polarization (FP) assay, inhibition of PI3Kα. Format: biochemical. Here is the method: Selected compounds were then tested for their enzymatic inhibitory activity against PI3Kα using a competitive fluorescence polarization (FP) assay to determine the molecular target of synthesized compounds [21].
The PI3Kα inhibitory test was determined using a competitive fluorescence polarization kinase activity assay. PI3K fluorescence polarization assay kit (catalog No. K-1100) and recombinant human PI3Kα (catalog No. E-2000) were purchased from Echelon Biosciences (Salt Lake City, UT, USA). PI3K reactions were performed in 5 mM HEPES, Ph 7, 2.5 mM MgCl2, 10 mM DTT and 50 µM ATP, using diC8-phosphatidylinositol-4, 5-bisphosphate (PIP2) as the substrate, and the final reaction volumes were 10 µL. For evaluation of the PI3Kα inhibitory activity of target compounds, 50 ng enzyme and 10 µM substate were used per 10 µL reaction volume with the concentrations of inhibitors ranging from 3.2 nM to 10 µM. After incubating for 3 h at room temperature, reactions were quenched by adding chelators. A mixture of phosphoinositide binding protein was added and mixed, followed by the addition of a fluorophore-labeled phosphoinositide tracer. Samples were then mixed in 384-well black Corning nonbinding plates (Corning, NY, USA) and incubated in a dark environment for 1 h to equilibrate. Finally, polarization values were measure using red fluorophores with appropriate filters to determine the extent of enzyme activity in the reaction.
A general note: In fluorescence polarisation assays a small probe gives low polarisation when free and higher when bound to something large.

Series [4] relates to A549. Kind of series: MTT assay, antiproliferative activity against A549 cells. Format: cell-based. Conditions: Homo sapiens, 72 h, mean of at least two determinations. The procedure, abridged: (§2)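 Cells grown in RPMI-1640 with 10% FBS at 37°C, 5% CO2, plated 24 h, then exposed to graded compound concentrations for 72 h. Viability read by MTT absorbance; IC50 is the concentration giving 50% absorbance inhibition versus untreated control.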
On the technique in general: Tetrazolium assays rely on reduction of a dye to a coloured formazan, in cell work by metabolically active cells.

In series [5] the test system is HCT116. Briefly: MTT assay, antiproliferative activity against HCT116 cells. The format is cell-based. The settings on record: Homo sapiens, HCT-116, 72 h, mean of at least two determinations. The essentials: as §2
The test system of series [6] is PC3. Briefly: MTT assay, antiproliferative activity against PC3 cells. Format: cell-based. Conditions: Homo sapiens, PC-3, 72 h, mean of at least two determinations. The procedure, abridged: as §2

T1 sequence (P42336 whole entry): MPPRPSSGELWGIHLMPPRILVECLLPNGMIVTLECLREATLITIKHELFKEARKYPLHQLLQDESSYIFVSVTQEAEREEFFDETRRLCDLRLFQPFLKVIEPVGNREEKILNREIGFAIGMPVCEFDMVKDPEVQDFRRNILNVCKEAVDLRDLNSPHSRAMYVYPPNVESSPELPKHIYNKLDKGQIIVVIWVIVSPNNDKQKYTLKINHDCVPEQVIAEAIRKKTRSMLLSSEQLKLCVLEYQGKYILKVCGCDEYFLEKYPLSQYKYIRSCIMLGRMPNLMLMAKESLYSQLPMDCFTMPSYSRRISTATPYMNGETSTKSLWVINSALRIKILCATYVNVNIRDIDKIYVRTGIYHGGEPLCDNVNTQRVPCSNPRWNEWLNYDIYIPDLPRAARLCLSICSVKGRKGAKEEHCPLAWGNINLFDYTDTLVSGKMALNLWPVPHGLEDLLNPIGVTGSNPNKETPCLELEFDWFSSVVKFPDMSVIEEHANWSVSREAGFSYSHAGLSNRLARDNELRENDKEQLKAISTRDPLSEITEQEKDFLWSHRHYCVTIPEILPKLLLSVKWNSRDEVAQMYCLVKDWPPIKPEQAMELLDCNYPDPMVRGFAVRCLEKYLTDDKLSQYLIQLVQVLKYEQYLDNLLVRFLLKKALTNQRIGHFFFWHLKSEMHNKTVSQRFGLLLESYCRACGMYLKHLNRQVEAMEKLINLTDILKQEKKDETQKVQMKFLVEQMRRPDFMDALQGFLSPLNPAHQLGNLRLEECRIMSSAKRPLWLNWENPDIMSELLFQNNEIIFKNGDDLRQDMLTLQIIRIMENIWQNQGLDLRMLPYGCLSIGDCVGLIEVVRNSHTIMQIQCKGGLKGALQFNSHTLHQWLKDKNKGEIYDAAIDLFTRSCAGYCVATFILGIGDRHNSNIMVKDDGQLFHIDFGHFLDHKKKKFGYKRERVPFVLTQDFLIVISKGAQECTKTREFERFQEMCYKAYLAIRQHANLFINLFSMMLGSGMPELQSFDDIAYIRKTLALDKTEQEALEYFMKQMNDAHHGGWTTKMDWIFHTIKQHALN
T1 sequence (P27986 whole entry partner): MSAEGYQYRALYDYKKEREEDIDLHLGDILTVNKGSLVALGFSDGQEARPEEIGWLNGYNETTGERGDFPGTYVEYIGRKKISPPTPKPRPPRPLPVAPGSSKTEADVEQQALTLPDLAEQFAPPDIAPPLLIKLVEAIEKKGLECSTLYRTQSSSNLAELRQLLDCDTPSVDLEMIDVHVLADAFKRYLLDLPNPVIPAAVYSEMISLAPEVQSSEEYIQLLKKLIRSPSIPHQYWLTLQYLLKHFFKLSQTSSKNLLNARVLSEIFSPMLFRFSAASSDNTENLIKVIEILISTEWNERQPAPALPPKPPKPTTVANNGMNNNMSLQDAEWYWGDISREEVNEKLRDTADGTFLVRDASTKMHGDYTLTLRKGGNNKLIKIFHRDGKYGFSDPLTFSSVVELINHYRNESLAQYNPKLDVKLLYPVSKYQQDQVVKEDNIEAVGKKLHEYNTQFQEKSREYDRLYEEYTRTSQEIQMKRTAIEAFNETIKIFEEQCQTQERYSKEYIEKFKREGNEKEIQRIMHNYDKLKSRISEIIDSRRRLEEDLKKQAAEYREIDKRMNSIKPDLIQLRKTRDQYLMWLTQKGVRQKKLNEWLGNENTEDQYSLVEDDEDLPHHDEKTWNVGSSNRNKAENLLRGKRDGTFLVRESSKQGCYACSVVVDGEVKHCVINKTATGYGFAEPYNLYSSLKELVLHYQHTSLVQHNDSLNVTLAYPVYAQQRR

`CS(=O)(=O)N1CCN(Cc2cc3nc(-c4cccc5[nH]ncc45)nc(N4CCOCC4)c3s2)CC1` [GDC0941, 2-(1H-Indazol-4-yl)-6-(4-methanesulfonyl-piperazin-1-ylmethyl)-4-morpholin-4-yl-thieno[3,2-d]pyrimidine, reference compound]: in series [1] (5 µM), the “percent of apoptotic PC3 cells” value was 3.12%. Besides, the “percent of apoptotic PC3 cells” value in series [1] (10 µM) is on record as 5.65%. For the same compound, in series [2] (2 µM), the “percent of cells in G1” value is 63.66%, the “percent of cells in G2” value was 21.86% and the “percent of cells in S” value was found to be 14.48%. Besides, in series [2] (4 µM), the “percent of cells in G1” value is 71.43%, the “percent of cells in G2” value was 19.92% and the “percent of cells in S” value turned out to be 8.65%. Also, the cell cycle arrest result in series [2] is given as “induced cell cycle arrest in G1 phase”.
For `COc1ccc(S(=O)(=O)c2nc3ccccc3nc2N2CCN(S(C)(=O)=O)CC2)cc1` [Compound 41, 2-(4-(Methylsulfonyl)piperazin-1-yl)-3-(4-methoxyphenylfsulfonyl)quinoxaline], the melting point (usually the temperature, or range, at which the solid turns liquid) was in the range of 177 to 179 °C. In series [3] (BEI = pIC50 (M)/MW (kDa), PI3Kα), the “Binding efficiency index (BEI)” value stood at 16.5. The IC50 (usually the concentration that gives 50% inhibition) in series [3] (FP assay, 50 µM ATP, mean of at least two determinations) was 24 nM. The half-maximal inhibitory concentration (IC50) in series [4] was 1320 nM. The compound also showed an IC50 in series [5] of 550 nM. The “percent of apoptotic PC3 cells” value in series [1] (5 µM) is 4.48%. The “percent of apoptotic PC3 cells” value in series [1] (10 µM) stood at 32.83%. For the same compound, in series [2] (2 µM), the “percent of cells in G1” value was 53.77%, the “percent of cells in G2” value stood at 16.76% and the “percent of cells in S” value is recorded as 29.48%. Besides, in series [2] (4 µM), the “percent of cells in G1” value is reported as 54.38%, the “percent of cells in G2” value was determined as 15.87% and the “percent of cells in S” value is reported as 29.75%. Also, in series [2], the cell cycle arrest entry is on record as “showed similar trend while the percent of cell in G1 phase was smaller”. In series [6], it took 2210 nM to reach half-maximal inhibition (IC50).
